Several values for one entry are separate records, joined by “and”; a condition that tells them apart may be missing. Equal values may be shown once.
Tested on: 997537-175-T-J1-PDC complex spheroid viability
Assay: Anticancer human tumor 997537-175-T-J1-PDC patient-derived colon adenocarcinoma cell line growth inhibition [GQUAD]
Conditions: for viability, T/C: stronger effect = lower value
Source text: DNA G-quadruplex Stabilizer Agents in Combinations in Complex Spheroids
A high-throughput screen of multi-cell type tumor spheroids was designed to identify active combinations of DNA G-quadruplex stabilizer agents and targeted small molecules. Complex spheroids include a stromal component modeled by human endothelial cells (HUVEC) and fibroblasts modeled by human mesenchymal stem cells (MSCs). The concentration ranges selected for each drug and investigational agent were based upon clinically achievable concentrations if the clinical Cmax of the agent was known.
Compounds. The drugs and investigational agents: pidnarulex (CX-5461; NSC782164), APTO-253 (NSC789042), BRACO-19 (NSC847499), peposertib (NSC802822), ceralasertib (NSC780249), elimusertib (NSC800525), camonsertib (NSC841442), AZD-1390 (NSC803789), olaparib (NSC753686), talazoparib (NSC767125), ART-558 (NSC835418), sotorasib (NSC818433), MRTX-1133 (NSC836407), SN-38 (NSC673596), topotecan (NSC609699), etoposide (NSC141540), doxorubicin (NSC123127), gemcitabine (NSC613327), 5-fluorouracil (NSC19893), paclitaxel (NSC125973), vemurafenib (NSC761431), panobinostat (NSC761190), R-306465 (JNJ-16241199; NSC773264), adavosertib (NSC754352), TP-3654 (NSC805149), carboplatin (NSC241240), KSQ-4279 (NSC840948), and staurosporine (NSC755774) were obtained from the National Cancer Institute (NCI) Developmental Therapeutics Program Chemical Repository (34). The FDA-approved anticancer drug set is available from the NCI Developmental Therapeutics Program. […] The stock solutions were prepared in dimethyl sulfoxide (DMSO, Sigma-Aldrich, St. Louis, MO, cat. D2650) at 800-fold the tested concentration and stored at -70 degrees C prior to their use. All drugs and investigational agents were tested over a range starting from a high concentration at or near the clinical Cmax and decreasing in half-log increments. If the clinical Cmax for an agent had not been determined, the highest concentration tested was 10 microM.
2.3 Cell Culture. All cells were maintained in an incubator at 37 degrees C and 5% CO2 with 95% humidity. The PDC lines were cultured according to standard operating procedures established by the NCI PDMR. All PDCs were thawed and cultured in Matrigel-coated flasks prepared with a working solution of 1X Ham's F-12 nutrient mix, without supplementation (Invitrogen, cat. 11765054), 100 U/mL penicillin-streptomycin (Invitrogen, cat. 15140122), and 2.5% Matrigel (Corning Inc., cat. 354248) for the first three passages. The 857933-349-R-J2-PDC line was cultured in 6C/Colon 1B media, which includes advanced DMEM/F-12 (Thermo Fisher Scientific, cat. 12634028), 10 mM HEPES (Thermo Fisher Scientific, cat. 15630080), 1X GlutaMAX supplement (Thermo Fisher Scientific, cat. 35050061), 0.1 mg/mL primocin (InvivoGen, cat. ant-pm-2), 10% defined fetal bovine serum, heat inactivated (HyClone Laboratories Inc., cat. SH30070.03HI), 50% L-WRN conditioned media (ATCC, cat. CRL-3276), 1.25 mM N-Acetyl-L-cysteine (Sigma-Aldrich, cat. A9165), 10 mM nicotinamide (Sigma-Aldrich, cat. N0636), 1X B-27 supplement (Thermo Fisher Scientific, cat. 17504044), 1X N-2 supplement (Thermo Fisher Scientific, cat. 17502048), 10 microM Y-27632 dihydrochloride (Tocris Bioscience, cat. 1254), and 50 ng/mL human EGF recombinant protein (Thermo Fisher Scientific, cat. PHG0311). The 485176-168-R4-J1-PDC line was cultured in Panc media, which includes all 6C/Colon 1B media components plus 100 ng/mL human FGF-10 (Thermo Fisher Scientific, cat. 100-26), 500 nM SB-431542 (Selleckchem, cat. S1067), and gastrin (Tocris, cat. 3006).
[…]
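Also: spheroids exposed to the agents for 7 days.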
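For viability, T/C in this document: 100% = DMSO vehicle control viability.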

| IC50 (curve of compound) | IC50 (compound alone, run of 04/22/2024) [nM] | SMILES | viability, T/C (compound 0.0316 µM) | viability, T/C (compound 0.1 µM) | viability, T/C (compound 0.316 µM) | viability, T/C (compound 1 µM) | viability, T/C (compound 3.16 µM) | viability, T/C (compound 10 µM) | viability, T/C (compound 0.000999 µM) | viability, T/C (compound 0.00316 µM) | viability, T/C (compound 0.00999 µM) | viability, T/C (compound 0.0999 µM) |
| --- | --- | --- | --- | --- | --- | --- | --- | --- | --- | --- | --- | --- |
| > 10000 nM and 1940 nM |  | C#Cc1c(F)ccc2cc(O)cc(-c3ncc4c(N5CC6CCC(C5)N6)nc(OCC56CCCN5CC(F)C6)nc4c3F)c12 (stereo not given) | 89% and 91.8% and 98.1% | 89.1% and 92.2% and 103% | 104% and 94.8% and 102% | 99.4% and 67.4% and 107% | 88.9% and 38.7% and 91.8% | 106% and 35.1% and 92.4% |  |  |  |  |
| 5750 nM and 2730 nM and 3530 nM |  | C=CCn1c(=O)c2cnc(Nc3ccc(N4CCN(C)CC4)cc3)nc2n1-c1cccc(C(C)(C)O)n1 | 95.7% and 89.4% and 112% | 75.6% and 101% and 92.2% | 81.8% and 88.3% and 92.2% | 80.2% and 84.5% and 79.4% | 73.2% and 44.9% and 49.3% | 28.9% and 30.8% and 24.2% |  |  |  |  |
| 1750 nM and 846 nM and 219 nM |  | CC1COCCN1c1cc(-c2ccnn2C)c2ccnc(-c3ccn[nH]3)c2n1 (stereo not given) | 80.4% and 95.8% and 90.8% | 67.5% and 75.7% and 62.5% | 46% and 65.2% and 33.9% | 61% and 40% and 50% | 58% and 48.9% and 43.1% | 36.4% and 43.5% and 49.4% |  |  |  |  |
| 345 nM and 701 nM and 282 nM |  | CC1COCCN1c1cc(C2(O)CC3CCC(C2)O3)c2cnn(-c3ccn[nH]3)c2n1 (stereo not given) | 86.8% and 86.6% and 96.4% | 57.4% and 66.7% (2×) | 50.3% and 53.8% and 37.7% | 51.1% and 54.5% and 70.1% | 49.2% and 35.5% and 36.5% | 44.9% and 33.9% and 48.4% |  |  |  |  |
| 7160 nM and 7090 nM and 5600 nM |  | CC1COCCN1c1cc(C2(S(C)(=N)=O)CC2)nc(-c2ccnc3[nH]ccc23)n1 (stereo not given) | 98.9% and 93.7% and 101% | 81.9% and 86.5% and 95.8% | 83.6% and 94.9% and 77% | 83.5% and 68.5% and 90.1% | 56.5% and 65.7% and 59.5% | 46.4% and 44.1% and 36.8% |  |  |  |  |
| 276 nM and > 316 nM |  | CC[C@@]1(O)C(=O)OCc2c1cc1n(c2=O)Cc2cc3c(CN(C)C)c(O)ccc3nc2-1 | 80.1% and 87.1% and 83.8% |  | 44.4% and 62.8% and 50.7% |  |  |  | 111% (2×) and 97.1% | 69.8% and 102% and 104% | 90.1% and 96.7% and 105% | 71.2% and 79.7% and 72.6% |
| 10.5 nM and 17.4 nM and 9.78 nM |  | CCc1c2c(nc3ccc(O)cc13)-c1cc3c(c(=O)n1C2)COC(=O)[C@]3(O)CC | 34.5% and 31.5% and 19.4% |  | 2.98% and 3.42% and 6.93% |  |  |  | 83.3% and 102% and 95.3% | 63.9% and 92% and 82.8% | 52.7% and 68.5% and 49% | 6.34% and 5.01% and 4.92% |

Second part, the molecule before the results:

| SMILES | IC50 (curve of compound) | IC50 (compound alone, run of 04/22/2024) [nM] | viability, T/C (compound 0.0316 µM) | viability, T/C (compound 0.1 µM) | viability, T/C (compound 0.316 µM) | viability, T/C (compound 1 µM) | viability, T/C (compound 3.16 µM) | viability, T/C (compound 10 µM) | viability, T/C (compound 0.000999 µM) | viability, T/C (compound 0.00316 µM) | viability, T/C (compound 0.00999 µM) | viability, T/C (compound 0.0999 µM) |
| --- | --- | --- | --- | --- | --- | --- | --- | --- | --- | --- | --- | --- |
| C=CC(=O)N1CCN(c2nc(=O)n(-c3c(C)ccnc3C(C)C)c3nc(-c4c(O)cccc4F)c(F)cc23)C(C)C1 (stereo not given) | > 10000 nM |  | 72.9% and 96.6% and 86.9% | 72.7% and 83.5% and 95.8% | 86.5% and 87.9% and 93.8% | 92.2% and 77.4% and 73% | 95.7% and 79.1% and 71.7% | 94.6% and 94.1% and 90% |  |  |  |  |
| CC(=O)O[C@H]1C(=O)[C@@]2(C)[C@H]([C@H](OC(=O)c3ccccc3)[C@]3(O)C[C@H](OC(=O)[C@H](O)[C@@H](NC(=O)c4ccccc4)c4ccccc4)C(C)=C1C3(C)C)[C@]1(OC(C)=O)CO[C@@H]1C[C@@H]2O |  |  | 104% and 77.3% and 50.1% | 92.5% and 40.4% and 45.4% | 91.8% and 22.7% and 36.3% | 74.7% and 34.4% and 39.1% | 53.2% and 23.9% and 28.3% | 0.36% and 20.5% and 22% |  |  |  |  |
| CC(C)(O)C1CCC(Nc2ccc3ncc(-c4cccc(C(F)(F)F)c4)n3n2)CC1 (stereo not given) | > 10000 nM and 1460 nM and 2030 nM |  | 106% and 96.5% and 115% | 111% and 78.3% and 65.2% | 114% and 96.7% and 109% | 101% and 61.5% and 68.3% | 98.6% and 24.1% and 40.3% | 96.8% and 28.7% and 36.9% |  |  |  |  |
| CC(C)n1c(=O)n(C)c2cnc3cc(F)c(-c4ccc(OCCCN5CCCCC5)nc4)cc3c21 | > 10000 nM |  | 97.6% and 103% and 97% | 90.3% and 99.9% and 82.4% | 110% and 106% and 99.8% | 107% and 99.2% and 103% | 83.5% and 78.7% and 101% | 83.4% and 93.4% and 92% |  |  |  |  |
| CCCS(=O)(=O)Nc1ccc(F)c(C(=O)c2c[nH]c3ncc(-c4ccc(Cl)cc4)cc23)c1F | 2810 nM and 3150 nM and 1790 nM |  | 98.4% and 98.6% and 86.2% | 99.3% and 95.1% and 77.8% | 97.4% and 68.8% and 65.1% | 89.6% and 71.8% and 53% | 45.4% and 56.1% and 52.3% | 34.9% and 24.1% and 25% |  |  |  |  |
| CN(C)c1ccc(Nc2c3ccc(NC(=O)CCN4CCCC4)cc3nc3cc(NC(=O)CCN4CCCC4)ccc23)cc1 |  | > 10000 |  |  | 97.1% [middle of 12 runs] |  |  |  |  |  |  |  |
